Measured values reported in the supplement of paper PMC11451515.

Tested on: NOMO1
Experiment: cell viability relative to DMSO control; higher = less cytotoxic
Details: 48 h
Procedure, shortened: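 NOMO1, SEM and P12-Ichikawa leukemia cells spent at least four passages adapting to each medium before use. They were seeded at 500 cells/well (NOMO1, SEM) or 1000 cells/well (P12-Ichikawa) in 5 μl in 1536-well plates and pin-dosed with library compounds in DMSO at 11 threefold steps from 47 μM down to 0.79 nM. After 48 h at 37°C, CellTiter-Glo One luminescence was read. Viability is reported as a percentage of the DMSO wells on each plate, with cell-free wells as background.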

[1] = RPMI 5 mM glucose + 10% FBS, 0.000781 µM
[2] = RPMI 5 mM glucose + 10% FBS, 0.00234 µM
[3] = RPMI 5 mM glucose + 10% FBS, 0.00702 µM
[4] = RPMI 5 mM glucose + 10% FBS, 0.0211 µM
[5] = RPMI 5 mM glucose + 10% FBS, 0.0632 µM
[6] = RPMI 5 mM glucose + 10% FBS, 0.19 µM
[7] = RPMI 5 mM glucose + 10% FBS, 0.569 µM
[8] = RPMI 5 mM glucose + 10% FBS, 1.71 µM
[9] = RPMI 5 mM glucose + 10% FBS, 5.12 µM
[10] = RPMI 5 mM glucose + 10% FBS, 15.4 µM
[11] = RPMI 5 mM glucose + 10% FBS, 46.1 µM
[12] = RPMI 5 mM glucose + 10% dialyzed FBS, 0.000781 µM
[13] = RPMI 5 mM glucose + 10% dialyzed FBS, 0.00234 µM
[14] = RPMI 5 mM glucose + 10% dialyzed FBS, 0.00702 µM
[15] = RPMI 5 mM glucose + 10% dialyzed FBS, 0.0211 µM
[16] = RPMI 5 mM glucose + 10% dialyzed FBS, 0.0632 µM
[17] = RPMI 5 mM glucose + 10% dialyzed FBS, 0.19 µM
[18] = RPMI 5 mM glucose + 10% dialyzed FBS, 0.569 µM
[19] = RPMI 5 mM glucose + 10% dialyzed FBS, 1.71 µM
[20] = RPMI 5 mM glucose + 10% dialyzed FBS, 5.12 µM
[21] = RPMI 5 mM glucose + 10% dialyzed FBS, 15.4 µM
[22] = RPMI 5 mM glucose + 10% dialyzed FBS, 46.1 µM
[23] = HPLM + 10% dialyzed FBS, 0.000781 µM
[24] = HPLM + 10% dialyzed FBS, 0.00234 µM
[25] = HPLM + 10% dialyzed FBS, 0.00702 µM
[26] = HPLM + 10% dialyzed FBS, 0.0211 µM
[27] = HPLM + 10% dialyzed FBS, 0.0632 µM
[28] = HPLM + 10% dialyzed FBS, 0.19 µM
[29] = HPLM + 10% dialyzed FBS, 0.569 µM
[30] = HPLM + 10% dialyzed FBS, 1.71 µM
[31] = HPLM + 10% dialyzed FBS, 5.12 µM
[32] = HPLM + 10% dialyzed FBS, 15.4 µM
[33] = HPLM + 10% dialyzed FBS, 46.1 µM

Row | SMILES | cell viability [1] | cell viability [2] | cell viability [3] | cell viability [4] | cell viability [5] | cell viability [6] | cell viability [7] | cell viability [8] | cell viability [9] | cell viability [10] | cell viability [11] | cell viability [12] | cell viability [13] | cell viability [14] | cell viability [15] | cell viability [16] | cell viability [17] | cell viability [18] | cell viability [19] | cell viability [20] | cell viability [21] | cell viability [22] | cell viability [23] | cell viability [24] | cell viability [25] | cell viability [26] | cell viability [27] | cell viability [28] | cell viability [29] | cell viability [30] | cell viability [31] | cell viability [32] | cell viability [33]
1 | Cc1n[nH]c(C)c1Cc1sc2c(c1C(=O)N1C[C@H](O)CO1)c(=O)n(C)c(=O)n2CC(C)C | 107% | 105% | 102% | 100% | 102% | 102% | 109% | 99.1% | 93.9% | 106% | 109% | 105% | 109% | 117% | 102% | 116% | 104% | 115% | 122% | 113% | 119% | 99.7% |  |  |  |  |  |  |  |  |  |  | 
2 | CN1C(=O)C(=C/2N(C(=O)N(C3CC3)C(=O)C2=C1/NC4=CC=C(I)C=C4F)C5=CC=CC(=C5)NC(C)=O)\C |  |  |  |  |  |  |  |  |  |  |  | 117% | 135% | 124% | 92.7% | 81% | 63.8% | 55.1% | 49.6% | 27.6% | 9.59% | 6.9% | 117% | 134% | 113% | 99.3% | 83.4% | 61.1% | 52.3% | 41.1% | 10.8% | 7.05% | 6.86%
3 | Oc1ccc(-c2nc(-c3ccncc3)c(-c3ccc(F)cc3)[nH]2)cc1 | 100% | 106% | 106% | 112% | 116% | 135% | 150% | 125% | 118% | 18.4% | 1.54% | 105% | 124% | 126% | 110% | 122% | 133% | 136% | 128% | 130% | 36.8% | 1.72% | 99.7% | 113% | 122% | 117% | 125% | 135% | 147% | 121% | 19.1% | 2.63% | 1.72%
4 | Cc1cc(-c2ccc(CC(=O)Nc3ccc(-c4cccnc4)cc3)cc2)ccn1 | 108% | 118% | 108% | 111% | 107% | 110% | 116% | 96.4% | 84.6% | 54.3% | 40.9% | 119% | 131% | 124% | 110% | 134% | 103% | 106% | 110% | 91.8% | 55.8% | 41.7% |  |  |  |  |  |  |  |  |  |  | 
5 | CN1\C(=C(O)/C2=C(C=C(Cl)S2)[S+]1([O-])=O)C(=O)NC3=NC=CC=C3 | 109% | 108% | 110% | 105% | 119% | 128% | 126% | 109% | 108% | 121% | 111% | 115% | 101% | 126% | 120% | 131% | 126% | 123% | 118% | 112% | 116% | 114% | 138% | 112% | 116% | 125% | 119% | 111% | 132% | 103% | 125% | 123% | 108%
6 | CNCCN(C)Cc1c[nH]nc1-c1ccc(O[C@H]2C[C@H](OCCC3CCOCC3)C2)cc1 | 126% | 123% | 122% | 132% | 149% | 141% | 135% | 131% | 141% | 148% | 132% | 119% | 122% | 140% | 143% | 151% | 130% | 147% | 147% | 144% | 141% | 124% | 115% | 110% | 129% | 150% | 136% | 156% | 133% | 128% | 114% | 103% | 121%
7 | CC(C)(OCc1nn(Cc2ccccc2)c2ccccc12)C(=O)O | 84.4% | 89.3% | 98.8% | 96% | 93% | 92.2% | 99.9% | 94.2% | 89.8% | 96.8% | 83.4% | 96.2% | 91.5% | 93.3% | 108% | 91.6% | 106% | 102% | 83.6% | 111% | 95.4% | 97.4% | 101% | 99.8% | 108% | 116% | 120% | 84.4% | 108% | 114% | 88.8% | 85.2% | 99.1%
